How the values were obtained:
[1] = target: T1, recombinant human Wee1A kinase (Homo sapiens, UniProt P30291); assay: Wee1A kinase binding assay (LanthaScreen Eu time-resolved FRET); conditions: 30 nM tracer 178, 5 nM Wee1A kinase, 2 nM Eu-labeled antibody; 60 minutes at room temperature; read-out: Wee1A kinase Binding IC50
T1 construct: full length Wee1 kinase was expressed by baculovirus in insect cells; purchased Invitrogen PV3817; host or cells: insect cells (baculovirus)
Outline: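 Full-length, baculovirus-expressed GST-tagged Wee1A (5 nM) was mixed with 2 nM Eu-anti-GST antibody, 30 nM kinase tracer 178 and compound (1% DMSO). Buffer was 50 mM HEPES pH 7.5, 10 mM MgCl2, 1 mM EGTA, 0.01% Brij-35, incubated 60 min at room temperature. TR-FRET 665/615 nm emission ratios from duplicates were curve-fitted.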

[2] = target: T2, Myt1 kinase (recombinant PMYT-1) (Homo sapiens, UniProt Q99640); assay: Myt1 kinase binding assay (LanthaScreen Eu Kinase Binding Assay); conditions: 3 nM tracer 178, 2.5 nM PMYT-1, 1 nM Eu-labeled antibody; read-out: Myt1 kinase Binding IC50
T2 construct: full length PMYT-1 was expressed by baculovirus in insect cells; purchased Invitrogen A30984; host or cells: insect cells (baculovirus)
T2 sequence (Q99640 1-499): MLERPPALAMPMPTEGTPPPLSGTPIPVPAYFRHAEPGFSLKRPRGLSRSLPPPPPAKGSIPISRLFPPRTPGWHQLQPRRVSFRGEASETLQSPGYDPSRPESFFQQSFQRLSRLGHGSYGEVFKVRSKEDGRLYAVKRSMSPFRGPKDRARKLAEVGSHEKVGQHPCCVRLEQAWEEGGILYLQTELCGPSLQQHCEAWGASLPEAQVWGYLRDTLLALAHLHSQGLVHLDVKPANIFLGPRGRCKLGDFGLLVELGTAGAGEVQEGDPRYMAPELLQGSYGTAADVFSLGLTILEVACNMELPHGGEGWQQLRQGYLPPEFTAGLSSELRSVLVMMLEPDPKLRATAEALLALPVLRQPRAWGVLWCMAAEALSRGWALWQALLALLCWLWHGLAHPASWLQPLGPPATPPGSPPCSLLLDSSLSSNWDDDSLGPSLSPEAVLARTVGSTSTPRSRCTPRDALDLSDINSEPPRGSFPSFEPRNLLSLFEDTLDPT
Outline: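 The binding affinity of compounds for Myt1 kinase was measured with a LanthaScreen Europium (Eu) Kinase Binding Assay, a time-resolved FRET format in which test compounds compete against a labeled kinase tracer, and the results were expressed as IC50 values describing compound binding to Myt1.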

[3] = target: T3, Myt1 kinase (CDK1 Thr14 phosphorylation in DAOY medulloblastoma cells) (Homo sapiens, UniProt Q99640); assay: AlphaLISA assay, Myt1 kinase target engagement (phospho-CDK1 Thr14) in DAOY cells; format: cell-based; conditions: 4 h treatment, read-out: CDK1 Thr14 Phosphorylation EC50
T3 construct: pCDK1 Thr14 AlphaLISA read-out
T3 sequence (Q99640 1-499): T2 sequence (Q99640 1-499)
Experimental: Each of an ACHN renal cell carcinoma cell line (ATCC) and a DAOY medulloblastoma cell line, and an A427 lung cancer line were cultured in Minimum Essential Medium Eagle supplemented with 10% fetal calf serum (Sigma), 1% Penicillin-Streptomycin and 10 mM HEPES buffer (HyClone). Cell cultures were kept in a humidified incubator at 37 °C and 5% CO2. Cells were routinely tested for Mycoplasma contamination.
For target engagement assessment of Myt1 kinase inhibition, quantification of Cdk1 phosphorylated on threonine 14 was detected using the AlphaLISA® SureFire® Ultra™ Human Phospho-CDK1 (Thr14) assay (Perkin Elmer). DAOY or ACHN cells were seeded into tissue culture treated 96-well plates (VWR) to a density of 10,000 or 20,000 cells per well respectively. 24 h post seeding cells were treated for 4 h with compounds at concentrations ranging from 7 to 5000 nM. Cells were washed with PBS and lysed in 50 μl AlphaLISA lysis buffer before freezing at −80 C. Ten ul of the lysate was transferred to 384 well plates and incubated with AlphaLISA donor and acceptor beads according to the manufacturer's instructions. Dose response curves and EC50 values were calculated and visualized using GraphPad Prism version 9. Target engagement for Myt1 kinase can also be measured using the same AlphaLISA assay in OVCAR3 cells, an ovarian cancer cell line. NIH:OVCAR-3 (OVCAR3) cells are cultured in RPMI-1640 medium supplemented with 0.01 mg/ml insulin, 20% FBS, 1% Penicillin-Streptomycin and 10 mM HEPES buffer. 14,000 cells per well are seeded into 96 well tissue culture plates in full medium. Twenty-four hours post seeding, cells are treated with compound for 4 hours at concentrations ranging from 0.017 nM to 1000 nM.

[4] = target: T4, Wee1A kinase (CDK1 Tyr15 phosphorylation in ACHN renal cell carcinoma cells) (Homo sapiens, UniProt P30291); assay: High-content imaging of pCdk1 Y15, Wee1A kinase target engagement in ACHN cells; format: cell-based; conditions: 4 h treatment, nuclear positivity for pCdk1 Y15 vs DMSO control, read-out: CDK1 Tyr15 Phosphorylation EC50
T4 construct: pCDK1 Tyr15 immunofluorescence read-out
T4 sequence (P30291 whole entry): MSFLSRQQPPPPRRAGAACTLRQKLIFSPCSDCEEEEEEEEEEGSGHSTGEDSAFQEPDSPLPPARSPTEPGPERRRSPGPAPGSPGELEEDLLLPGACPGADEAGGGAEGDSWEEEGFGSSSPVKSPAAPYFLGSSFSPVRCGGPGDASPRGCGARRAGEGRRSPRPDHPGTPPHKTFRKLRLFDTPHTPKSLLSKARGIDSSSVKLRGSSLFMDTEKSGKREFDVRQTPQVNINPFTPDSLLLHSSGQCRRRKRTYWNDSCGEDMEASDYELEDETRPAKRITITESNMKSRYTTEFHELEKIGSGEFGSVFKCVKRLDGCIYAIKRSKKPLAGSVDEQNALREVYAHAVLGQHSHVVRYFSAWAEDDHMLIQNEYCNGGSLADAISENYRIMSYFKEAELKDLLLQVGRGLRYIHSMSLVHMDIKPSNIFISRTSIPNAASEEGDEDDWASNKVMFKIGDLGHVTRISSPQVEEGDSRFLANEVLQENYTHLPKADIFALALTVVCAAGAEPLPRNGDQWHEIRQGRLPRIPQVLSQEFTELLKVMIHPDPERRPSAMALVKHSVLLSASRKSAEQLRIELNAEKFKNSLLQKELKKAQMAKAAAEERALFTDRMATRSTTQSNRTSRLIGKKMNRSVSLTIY
Outline: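 ACHN cells exposed to compound for 4 h over 7–5,000 nM or 0.3–200 nM, then fixed and immunostained for pCDK1 Y15 with DAPI nuclear counterstain. The percentage of pCdk1 Y15 nucleus-positive cells relative to DMSO control was imaged per well; EC50 from dose-response curves.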

ACHN cells = assay: Cell Titer Glo viability assay, ACHN cells; format: cell-based; conditions: Homo sapiens, 144 h, absolute EC50
Outline: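 Cells grown in MEM with 10% FCS were seeded at 500 (A427), 400 (ACHN) or 250 (DAOY) per well and treated the next day with compound at 17 to 10 000 nM. Viability relative to untreated control was read at 144 h by CellTiter-Glo 2.0.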

T1 sequence (P30291 whole entry): as above

`C=CCn1c(=O)c2cnc(Nc3cnn(C)c3)nc2n1-c1cccc(OC2CC3CCCC(C2)N3C)n1` (stereo not shown) [Compound 194, 2-allyl-1-{6-(9-methyl-9-azabicyclo[3.3.1]non-3-yloxy)-2-pyridyl}-6-(1-methyl-4-pyrazolylamino)-1,2-dihydro-3H-1,2,5,7-tetraazainden-3-one] gave an IC50 [1] of less than 10 nM, an IC50 [2] of less than 20 nM and an EC50 [3] greater than 1000 nM. The EC50 [4] was 100 to 500 nM.

Work on `C=CCn1c(=O)c2cnc(Nc3ccc4sncc4c3)nc2n1-c1cccc(OC2CCNCC2)n1` [Compound 228, 2-allyl-6-(1,2-benzisothiazol-5-ylamino)-1-[6-(4-piperidyloxy)-2-pyridyl]-1,2-dihydro-3H-1,2,5,7-tetraazainden-3-one] yielded an IC50 [1] of less than 10 nM, an IC50 [2] of less than 20 nM and an EC50 [3] greater than 1000 nM. For the same compound, the EC50 [4] was 100 to 500 nM.

Compound `C=CCn1c(=O)c2cnc(Nc3cccnc3)nc2n1-c1cccc(OC2CCNCC2)n1` [Compound 230, 2-allyl-1-[6-(4-piperidyloxy)-2-pyridyl]-6-(3-pyridylamino)-1,2-dihydro-3H-1,2,5,7-tetraazainden-3-one] has an IC50 [1] of less than 10 nM, an IC50 [2] of less than 20 nM and an EC50 [3] greater than 1000 nM. The EC50 [4] was greater than 1000 nM.

Compound `C=CCn1c(=O)c2cnc(Nc3ccc4oc(C)nc4c3)nc2n1-c1cccc(OC2CCNCC2)n1` [Compound 232, 2-allyl-6-(2-methyl-1,3-benzoxazol-5-ylamino)-1-[6-(4-piperidyloxy)-2-pyridyl]-1,2-dihydro-3H-1,2,5,7-tetraazainden-3-one] has an IC50 [1] of less than 10 nM, an IC50 [2] of less than 20 nM and an EC50 [3] of 200 to 500 nM. The EC50 [4] was less than 100 nM.

With `C=CCn1c(=O)c2cnc(Nc3ccc4nccnc4c3)nc2n1-c1cccc(OC2CCN(C)CC2)n1` [Compound 241, 2-allyl-1-[6-(1-methyl-4-piperidyloxy)-2-pyridyl]-6-(6-quinoxalinylamino)-1,2-dihydro-3H-1,2,5,7-tetraazainden-3-one] the IC50 [1] was less than 10 nM, the IC50 [2] was less than 20 nM and the EC50 [3] was 200 to 500 nM. It also gave an EC50 (ACHN cells) of no more than 100 nM.

With `C=CCn1c(=O)c2cnc(Nc3ccc(N4CCSCC4)cc3)nc2n1-c1cccc(OC2CCN(C)CC2)n1` [Compound 261, 2-allyl-1-[6-(1-methyl-4-piperidyloxy)-2-pyridyl]-6-[p-(1,4-thiazinan-4-yl)phenylamino]-1,2-dihydro-3H-1,2,5,7-tetraazainden-3-one] the IC50 [1] was less than 10 nM, the IC50 [2] was less than 20 nM and the EC50 [3] was 200 to 500 nM. The EC50 (ACHN cells) was no more than 100 nM.

Work on `C=CCn1c(=O)c2cnc(Nc3ccc4c(cnn4C(C)C)c3)nc2n1-c1cccc(OC2CCNCC2)n1` [Compound 265, 2-allyl-6-(1-isopropyl-1H-indazol-5-ylamino)-1-[6-(4-piperidyloxy)-2-pyridyl]-1,2-dihydro-3H-1,2,5,7-tetraazainden-3-one] yielded an IC50 [1] of less than 10 nM, an IC50 [2] of less than 20 nM and an EC50 [3] of 200 to 500 nM. The EC50 [4] was less than 100 nM.

Compound `C=CCn1c(=O)c2cnc(Nc3ccc4cnoc4c3)nc2n1-c1cccc(OC2CCN(C)CC2)n1` [Compound 299, 2-allyl-6-(1,2-benzisoxazol-6-ylamino)-1-[6-(1-methyl-4-piperidyloxy)-2-pyridyl]-1,2-dihydro-3H-1,2,5,7-tetraazainden-3-one] has an IC50 [1] of less than 10 nM, an IC50 [2] of 20 to 100 nM and an EC50 [3] greater than 1000 nM. The EC50 [4] was 500 to 1000 nM.

In the case of `C=CCn1c(=O)c2cnc(Nc3ccc4nc(C)oc4c3)nc2n1-c1cccc(OC2CCNCC2)n1` [Compound 316, 2-allyl-6-(2-methyl-1,3-benzoxazol-6-ylamino)-1-[6-(4-piperidyloxy)-2-pyridyl]-1,2-dihydro-3H-1,2,5,7-tetraazainden-3-one], the IC50 [1] is reported as less than 10 nM, the IC50 [2] is reported as 20 to 100 nM and the EC50 [4] is reported as less than 100 nM. It also gave an EC50 (ACHN cells) of 100 to 500 nM.

`C=CCn1c(=O)c2cnc(Nc3ccc(F)cc3)nc2n1-c1cccc(OC2CCCN(C)CC2)n1` (stereo not shown) [Compound 317, 2-allyl-6-(p-fluorophenylamino)-1-[6-(1-methyl-4-azepanyloxy)-2-pyridyl]-1,2-dihydro-3H-1,2,5,7-tetraazainden-3-one] was tested, and the IC50 [1] was less than 10 nM, the IC50 [2] was 20 to 100 nM and the EC50 [4] was 100 to 500 nM. It also gave an EC50 (ACHN cells) of 100 to 500 nM.

In the case of `CCn1c(=O)c2cnc(Nc3ccc4c(c3)ncn4C)nc2n1-c1cccc(OC2CCNCC2)n1` [Compound 318, 2-ethyl-6-((1-methyl-1H-benzo[d]imidazol-5-yl)amino)-1-(6-(piperidin-4-yloxy)pyridin-2-yl)-1,2-dihydro-3H-pyrazolo[3,4-d]pyrimidin-3-one], the IC50 [1] is reported as less than 10 nM, the IC50 [2] is reported as 20 to 100 nM and the EC50 [4] is reported as greater than 1000 nM. For the same compound, the EC50 (ACHN cells) was greater than 1000 nM.

Work on `C=CCn1c(=O)c2cnc(Nc3ccc4c(cnn4C)c3)nc2n1-c1cccc(O[C@H]2CCCN(C)C2)n1` [Compound 332, 1-{6-[(S)-1-methyl-3-piperidyloxy]-2-pyridyl}-2-allyl-6-(1-methyl-1H-indazol-5-ylamino)-1,2-dihydro-3H-1,2,5,7-tetraazainden-3-one] yielded an IC50 [1] of less than 10 nM, an IC50 [2] of 100 to 500 nM and an EC50 [4] of less than 100 nM. The EC50 (ACHN cells) was 100 to 500 nM.

`[2H]C([2H])([2H])c1cccc(Nc2ncc3c(=O)n(CC=C)n(-c4cccc(OC5CCNCC5)n4)c3n2)c1` [Compound 334, 2-allyl-6-((3-(methyl-d3)phenyl)amino)-1-(6-(piperidin-4-yloxy)pyridin-2-yl)-1,2-dihydro-3H-pyrazolo[3,4-d]pyrimidin-3-one] showed an IC50 [1] of less than 10 nM, an IC50 [2] of 20 to 100 nM and an EC50 [4] of less than 100 nM. For the same compound, the EC50 (ACHN cells) was no more than 100 nM.

`Cn1ccc2cc(Nc3ncc4c(=O)n(C)n(-c5cccc(OC6CCNCC6)n5)c4n3)ccc21` [Compound 336, 2-methyl-6-((1-methyl-1H-indol-5-yl)amino)-1-(6-(piperidin-4-yloxy)pyridin-2-yl)-1,2-dihydro-3H-pyrazolo[3,4-d]pyrimidin-3-one] was tested, and the IC50 [1] was less than 10 nM, the IC50 [2] was 20 to 100 nM and the EC50 [4] was less than 100 nM. For the same compound, the EC50 (ACHN cells) was 100 to 500 nM.

In the case of `C=CCn1c(=O)c2cnc(Nc3ccc(N4CCS(=O)(=O)CC4)cc3)nc2n1-c1cccc(OC2CCN(C)CC2)n1` [Compound 369, 4-(p-{2-allyl-1-[6-(1-methyl-4-piperidyloxy)-2-pyridyl]-3-oxo-1,2-dihydro-3H-1,2,5,7-tetraazainden-6-ylamino}phenyl)-1λ^6,4-thiazinane-1,1-dione], the IC50 [1] is reported as less than 10 nM, the IC50 [2] is reported as less than 20 nM and the EC50 [3] is reported as greater than 1000 nM. The EC50 [4] was less than 100 nM.

`C=CCn1c(=O)c2cnc(Nc3ccc(OCCCF)cc3)nc2n1-c1cccc(OC2CCNCC2)n1` [Compound 377] was tested, and the IC50 [1] was less than 10 nM, the IC50 [2] was less than 20 nM and the EC50 [4] was less than 100 nM. For the same compound, the EC50 (ACHN cells) was no more than 100 nM.
